Laboratory results as given in patent publication US20160291027A1, “METHODS FOR […] ABILITY OF A Z[…] COMPOUND TO TREAT CANCER” (Eisai R&D Management Co., Ltd., priority 2007, published 2016).

Columns and labels:
[1] = tested on: BRAF mutant (V600E) melanoma cell lines; test: Cell growth assay in BRAF mutant (V600E) melanoma cell lines; type: cell-based; settings: continuous presence of compound
Procedure: In a separate experiment, Compound 106 was tested in a panel of BRAF mutant (V600E) melanoma cell lines. (This set of cell lines represents 17 additional cell lines relative to FIG. 3C.) The melanoma cell lines were introduced into 96-well plates and grown in the absence or continuous presence of compound 106. IC50 values were determined as the concentration of a substance which inhibits cell growth by 50% compared to untreated cell populations.

[2] = tested on: DBTRG-05MG human glioblastoma xenografts; test: Subcutaneous DBTRG-05MG glioblastoma xenograft model; type: in vivo, mice
Procedure: The purpose of this study was to investigate anticancer activity of Compound 106 in a human DBTRG-05MG glioblastoma xenograft model. DBTRG-05MG human glioblastoma cancer cells, which carry the BRAF (V600E) mutation, were grown in monolayer cultures in ATCC-recommended growth media at 37° C. in a 5% CO2 humidified incubator. Cells were expanded in T225 flasks for the in vivo study. On the day of injection, growth medium was removed, flasks were washed with PBS, and cells were collected by trypsinization. The cells were washed and collected by centrifugation, and resuspended in ice-cold PBS.
Female athymic NU/NU mice (6 week old, Charles River Laboratories (Wilmington, Mass.)) were inoculated subcutaneously (s.c.) with 5×10^6 DBTRG-05MG human glioblastoma cancer cells. Those animals that developed tumors of approximately 150 mm^3 were selected and randomized into five groups.
The study consisted of a vehicle-treated group and four drug-treated groups of 8 mice per group for a total of 40 mice on the first day of treatment. All treatments were initiated on day 21. Compound 106 was administered intravenously (i.v.) on a Q4D×3 (days 21, 25, and 29) dosing schedule at dosages of 5, 10, 20 and 40 mg/kg with a volume of injection of 0.1 mL per 10 g body weight (Q4D×3=every four days for a total of three injections). The control group was treated with vehicle alone (20% Captisol in water; Captisol® (Sulfobutyl Ether Beta Cycolodextrin, Sodium Salt; Cydex, Inc., KS)).
General health of the mice was monitored and mortality was recorded daily. Tumor dimensions and animal body weights were recorded twice a week starting on the first day of treatment. The s.c. tumor volumes were measured and animals were weighed twice weekly starting with the first day of treatment. Tumor volume was determined by caliper measurement (mm) and using the following formula: […]
The study was terminated 60 days after cancer cell transplantation. […]

CCNc1cc(O)c2c(c1)/C=C/C[C@H](O)[C@H](O)C(=O)/C=C\[C@@H](C)[C@H](C)OC2=O [Compound 106]
Sensitivity of cell lines with BRAF mutation and wild-type PTEN status [1]: very sensitive
Tumor-free animals on day 60 ([2]; 5 mg/kg i.v. Q4D×3): One out of eight
Tumor-free animals on day 60 ([2]; 20 mg/kg i.v. Q4D×3): One out of eight
Anticancer activity (tumor volume vs. control group) ([2]; 5, 10, 20, and 40 mg/kg i.v. Q4D×3): statistically significant anticancer activity
